From paper PMC10298284, “Synthesis and hLDH Inhibitory Activity of Analogues to Natural Products with 2,8-Dioxabicyclo[3.3.1]nonane Scaffold” (International Journal of Molecular Sciences, 2023)
Values joined by “and” are separate entries in the source; they are usually repeats but may differ in a detail not shown here. Equal values may be shown once. Read-outs that look alike come from different tables or passages of the source.

Columns and labels:
recombinant human LDHA = target: T1, recombinant human LDHA (Homo sapiens, UniProt P00338); assay: hLDHA enzymatic activity assay (kinetic spectrofluorimetric, β-NADH fluorescence decrease); format: biochemical; conditions: for IC50: mean ± SD of n = 3 replicates; for Selectivity Rate (IC50 hLDHB/hLDHA): ratio IC50 hLDHB / IC50 hLDHA
T1 construct: purchased Abcam
Description: (§1) Briefly, the decrease in the coenzyme β-NADH fluorescence (λemission = 460 nm) was measured for 10 min, at different concentration of inhibitors, and its slope was compared with the one obtained when there were not inhibitors added (100% enzymatic activity).
The enzymatic assay was conducted on 96-well microplates and the decrease in the β-NADH fluorescence (λexcitation = 340 nm; λemission = 460 nm) was detected in a TECAN Infinite 200 Pro M Plex fluorescent plate reader (Tecan Instrument, Inc.) at 28 °C. The activity was determined according to our previously described protocol. The final volume in each well was set to 200 µL using 100 mM potassium phosphate buffer, 0.041 units/mL LDHA, 155 µM β-NADH, 1 mM pyruvate (saturated conditions), and DMSO solutions (5%, v/v) of pure compounds at concentrations in the range of 1–600 µM. The addition of pyruvate allowed the beginning of the reaction and fluorescence was registered every 60 s during 10 min. A lineal time interval was selected to calculate the slope at every single concentration. […] The slope obtained at each concentration was compared to the one obtained for the 100% enzymatic activity control to determine the corresponding enzymatic activity. A nonlinear regression analysis in GraphPad Prism version 9.00 for Windows (GraphPad Software, La Jolla, CA, USA) was used for dose response curve, fitting of logarithm of inhibitor concentration vs. normalized enzymatic activity, to calculate IC50 values (Supplementary Material section). All measurements were made in triplicate and data were expressed as the mean ± SD.

recombinant human LDHB = target: T2, recombinant human LDHB (Homo sapiens, UniProt P07195); assay: hLDHB enzymatic activity assay (same fluorimetric protocol); format: biochemical; conditions: mean ± SD of n = 3 replicates; read-out: hLDHB IC50
T2 construct: purchased Abcam
T2 sequence (P07195 whole entry): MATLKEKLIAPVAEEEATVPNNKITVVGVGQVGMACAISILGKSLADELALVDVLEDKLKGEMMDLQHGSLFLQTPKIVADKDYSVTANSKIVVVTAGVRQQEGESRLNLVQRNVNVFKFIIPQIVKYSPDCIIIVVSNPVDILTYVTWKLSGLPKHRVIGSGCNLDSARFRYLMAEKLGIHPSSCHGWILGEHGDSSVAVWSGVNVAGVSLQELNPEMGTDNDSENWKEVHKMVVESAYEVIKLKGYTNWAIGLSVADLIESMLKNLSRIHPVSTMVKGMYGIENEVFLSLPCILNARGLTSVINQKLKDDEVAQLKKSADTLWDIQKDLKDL
Description: as §1
The ability of the synthesized compounds to inhibit the hLDHB enzyme was measured using recombinant human LDHB (95%, specific activity >300 units/mg and concentration of 1.0 mg/mL, Abcam, Cambridge, UK) following the same fluorimetric protocol described in Section 3.4.

[1] = 1 mM pyruvate, 155 µM β-NADH, pH 7.3, 28 °C, read-out: hLDHA IC50
[2] = supplementary dose response curves, µM only on the axis label, read-out: IC50 (hLDHA inhibition curve)

COc1ccc(C2CC3=C(C(=O)O2)C2CC(c4ccc(OC)c(OC)c4)(O3)Oc3ccc([N+](=O)[O-])cc32)cc1 (racemic) [(±)-67a, 2-(3′,4′-Dimethoxyphenyl)-6-nitrochromane-(4→3″, 2→O-4″)-4″-hydroxy-6″-(4‴-methoxyphenyl)-5″,6″-dihydro-2H-pyran-2″-one]
IC50 (recombinant human LDHA; [1]): 14.8 ± 0.6 µM | Selectivity Rate (IC50 hLDHB/hLDHA) (recombinant human LDHA): >20.3 | Selectivity Rate (IC50 hLDHB/hLDHA) (recombinant human LDHA; listed as 67a): > 10 | IC50 (recombinant human LDHA; [2]): 14.8 ± 0.6 µM | IC50 (recombinant human LDHB): > 300 µM | melting point: 162 to 164 °C

COc1ccc(C23CC(c4ccccc4O2)c2c(O)cc(O)cc2O3)cc1OC (racemic) [(±)-42, 2-(3′,4′-Dimethoxyphenyl)-chromane-(4→4″, 2→O-5″)-phloroglucinol]
IC50 (recombinant human LDHA; [1]): 154 ± 11.3 µM | Selectivity Rate (IC50 hLDHB/hLDHA) (recombinant human LDHA): 1.9 | IC50 (recombinant human LDHA; [2]): 154 ± 11.3 µM | IC50 (recombinant human LDHB): 293.1 ± 2.4 µM | melting point: 77 to 80 °C (dec.)

O=C1C2=C(C(=O)c3ccccc31)C1CC(c3ccc(O)c(O)c3)(O2)Oc2ccccc21 (racemic) [(±)-54, 2-(3′,4′-Dihydroxyphenyl)-chromane-(4→3″, 2→O-2″)-2″-hydroxy-1″,4″-naphthoquinone]
melting point: 190 to 192 °C (dec.)

O=C1C2=C(C(=O)c3ccccc31)C1CC(c3ccc(O)c(O)c3)(O2)Oc2ccc([N+](=O)[O-])cc21 (racemic) [(±)-55, 2-(3′.4′-Dihydroxyphenyl)-6-nitrochromane-(4→3″, 2→O-2″)-2″-hydroxy-1″,4″-naphthoquinone]
IC50 (recombinant human LDHA; [1]): 27.4 ± 0.6 µM | Selectivity Rate (IC50 hLDHB/hLDHA) (recombinant human LDHA): 1.1 | IC50 (recombinant human LDHA; [2]): 27.4 ± 0.6 µM | melting point: 247 to 250 °C

COc1ccc(C23CC(C4=C(CC(c5ccccc5)OC4=O)O2)c2cc(Cl)ccc2O3)cc1OC (racemic) [(±)-68a, 2-(3′,4′-Dimethoxyphenyl)-6-chlorochromane-(4→3″, 2→O-4″)-4″-hydroxy-6″-phenyl-5″,6″-dihydro-2H-pyran-2″-one]
melting point: 106 to 108 °C

COc1ccc(C23CC(c4cc([N+](=O)[O-])ccc4O2)c2c(c4ccccc4oc2=O)O3)cc1OC (racemic) [(±)-49, 2-(3′,4′-Dimethoxyphenyl)-6-nitrochromane-(4→3″, 2→O-4″)-4″-hydroxycoumarin]
IC50 (recombinant human LDHA; [1]): 25.7 ± 0.3 µM | Selectivity Rate (IC50 hLDHB/hLDHA) (recombinant human LDHA): 8.3 | IC50 (recombinant human LDHA; [2]): 25.7 ± 0.3 µM | IC50 (recombinant human LDHB): 212.3 ± 1.4 µM | melting point: 142 to 144 °C

O=C1C2=C(C(=O)c3ccccc31)C1CC(c3ccc(O)cc3)(O2)Oc2ccc([N+](=O)[O-])cc21 (racemic) [(±)-60, 2-(4′-Hydroxyphenyl)-6-nitrochromane-(4→3″, 2→O-2″)-2″-hydroxy-1″,4″-naphthoquinone]
melting point: 270 to 273 °C (dec.)

O=c1oc2ccccc2c2c1C1CC(c3ccc(O)c(O)c3)(Oc3ccc(Cl)cc31)O2 (racemic) [(±)-47, 2-(3′,4′-Dihydroxyphenyl)-6-chlorochromane-(4→3″, 2→O-4″)-4″-hydroxycoumarin]
IC50 (recombinant human LDHA; [1]): < 10 µM and 9.1 µM | Selectivity Rate (IC50 hLDHB/hLDHA) (recombinant human LDHA): 1.6 | IC50 (recombinant human LDHA; [2]): 9.1 ± 0.5 µM | IC50 (recombinant human LDHB): 14.3 ± 0.9 µM | melting point: 98 to 100 °C (dec.)

COc1ccc(C23CC(c4cc(Cl)ccc4O2)c2c(c4ccccc4oc2=O)O3)cc1OC (racemic) [(±)-50, 2-(3′,4′-Dimethoxyphenyl)-6-chlorochromane-(4→3″, 2→O-4″)-4″-hydroxycoumarin]
IC50 (recombinant human LDHA; [1]): 13.2 ± 0.8 µM | Selectivity Rate (IC50 hLDHB/hLDHA) (recombinant human LDHA): >22.7 | Selectivity Rate (IC50 hLDHB/hLDHA) (recombinant human LDHA; listed as 50): > 10 | IC50 (recombinant human LDHA; [2]): 13.2 ± 0.8 µM | IC50 (recombinant human LDHB): > 300 µM | melting point: 130 to 133 °C

COc1ccc(C23CC(C4=C(CC(c5ccccc5)OC4=O)O2)c2cc([N+](=O)[O-])ccc2O3)cc1OC (racemic) [(±)-65a, 2-(3′,4′-Dimethoxyphenyl)-6-nitrochromane-(4→3″, 2→O-4″)-4″-hydroxy-6″-phenyl-5″,6″-dihydro-2H-pyran-2″-one]
IC50 (recombinant human LDHA; [1]): 12.5 ± 1.1 µM | Selectivity Rate (IC50 hLDHB/hLDHA) (recombinant human LDHA): 21.5 | Selectivity Rate (IC50 hLDHB/hLDHA) (recombinant human LDHA; listed as 65a): > 10 | IC50 (recombinant human LDHA; [2]): 12.5 ± 1.1 µM | IC50 (recombinant human LDHB): 269 ± 11 µM | melting point: 198 to 200 °C

COc1ccc(C23CC(c4cc(Cl)ccc4O2)c2c(O)cc(O)cc2O3)cc1OC (racemic) [(±)-44, 2-(3′,4′-Dimethoxyphenyl)-6-chlorochromane-(4→4″, 2→O-5″)-phloroglucinol]
melting point: 257 to 259 °C

COc1ccc(C2CC3=C(C(=O)O2)C2CC(c4ccc(OC)c(OC)c4)(O3)Oc3ccc(Cl)cc32)cc1 (racemic) [(±)-70a, 2-(3′.4′-Dimethoxyphenyl)-6-chlorochromane-(4→3″, 2→O-4″)-4″-hydroxy-6″-(4‴-methoxyphenyl)-5″,6″-dihydro-2H-pyran-2″-one]
IC50 (recombinant human LDHA; [1]): 112 ± 3 µM | Selectivity Rate (IC50 hLDHB/hLDHA) (recombinant human LDHA): >2.7 | IC50 (recombinant human LDHA; [2]): 112 ± 3 µM | IC50 (recombinant human LDHB): > 300 µM | melting point: 108 to 111 °C

COc1ccc(C23CC(C4=C(CC(c5ccc(Cl)cc5)OC4=O)O2)c2ccccc2O3)cc1OC (racemic) [(±)-63a, 2-(3′,4′-Dimethoxyphenyl)-chromane-(4→3″, 2→O-4″)-6″-(4‴-chlorophenyl)-4″-hydroxy-5″,6″-dihydro-2H-pyran-2″-one]
melting point: 110 to 112 °C

COc1ccc(C2CC3=C(C(=O)O2)C2CC(c4ccc(OC)c(OC)c4)(O3)Oc3ccccc32)cc1 (racemic) [(±)-64a, 2-(3′,4′-Dimethoxyphenyl)-chromane-(4→3″, 2→O-4″)-4″-hydroxy-6″-(4‴-methoxyphenyl)-5″,6″-dihydro-2H-pyran-2″-one]
IC50 (recombinant human LDHA; [1]): 52.8 ± 5.3 µM | Selectivity Rate (IC50 hLDHB/hLDHA) (recombinant human LDHA): >5.7 | IC50 (recombinant human LDHA; [2]): 52.8 ± 5.3 µM | IC50 (recombinant human LDHB): > 300 µM | melting point: 172 to 175 °C

COc1ccc(C23CC(c4cc([N+](=O)[O-])ccc4O2)c2c(O)cc(O)cc2O3)cc1OC (racemic) [(±)-43, 2-(3′,4′-Dimethoxyphenyl)-6-nitrochromane-(4→4″, 2→O-5″)-phloroglucinol]
IC50 (recombinant human LDHA; [1]): < 10 µM and 8.2 µM | Selectivity Rate (IC50 hLDHB/hLDHA) (recombinant human LDHA): 8.0 | IC50 (recombinant human LDHA; [2]): 8.2 ± 0.2 µM | IC50 (recombinant human LDHB): 65.3 ± 2.1 µM | melting point: 193 to 195 °C

COc1ccc(C23CC(C4=C(O2)C(=O)c2ccccc2C4=O)c2cc([N+](=O)[O-])ccc2O3)cc1OC (racemic) [(±)-58, 2-(3′.4′-Dimethoxyphenyl)-6-nitrochromane-(4→3″, 2→O-2″)-2″-hydroxy-1″,4″-naphthoquinone]
melting point: 148 to 150 °C

O=C1C2=C(C(=O)c3ccccc31)C1CC(c3ccc(O)cc3)(O2)Oc2ccc(Cl)cc21 (racemic) [(±)-61, 2-(4′-Hydroxyphenyl)-6-chlorochromane-(4→3″, 2→O-2″)-2″-hydroxy-1″,4″-naphthoquinone]
melting point: 249 to 251 °C

COc1ccc(C23CC(C4=C(O2)C(=O)c2ccccc2C4=O)c2cc(Cl)ccc2O3)cc1OC (racemic) [(±)-59, 2-(3′,4′-Dimethoxyphenyl)-6-chlorochromane-(4→3″, 2→O-2″)-2″-hydroxy-1″,4″-naphthoquinone]
melting point: 124 to 127 °C

COc1ccc(C23CC(C4=C(CC(c5ccc(Cl)cc5)OC4=O)O2)c2cc([N+](=O)[O-])ccc2O3)cc1OC (racemic) [(±)-66a, 2-(3′,4′-Dimethoxyphenyl)-6-nitrochromane-(4→3″, 2→O-4″)-6″-(4‴-chlorophenyl)-4″-hydroxy-5″,6″-dihydro-2H-pyran-2″-one]
IC50 (recombinant human LDHA; [1]): < 10 µM and 5.8 µM | Selectivity Rate (IC50 hLDHB/hLDHA) (recombinant human LDHA): 4.8 | IC50 (recombinant human LDHA; [2]): 5.8 µM | IC50 (recombinant human LDHB): 28.1 ± 0.4 µM | melting point: 194 to 196 °C

O=c1oc2ccccc2c2c1C1CC(c3ccc(O)cc3)(Oc3ccc(Cl)cc31)O2 (racemic) [(±)-53, 2-(4′-Hydroxyphenyl)-6-chlorochromane-(4→3″, 2→O-4″)-4″-hydroxycoumarin]
melting point: 250 to 252 °C (dec.)

O=c1oc2ccccc2c2c1C1CC(c3ccc(O)c(O)c3)(Oc3ccc([N+](=O)[O-])cc31)O2 (racemic) [(±)-46, 2-(3′,4′-Dihydroxyphenyl)-6-nitrochromane-(4→3″, 2→O-4″)-4″-hydroxycoumarin]
melting point: 128 to 130 °C (dec.)

O=C1C2=C(C(=O)c3ccccc31)C1CC(c3ccc(O)c(O)c3)(O2)Oc2ccc(Cl)cc21 (racemic) [(±)-56, 2-(3′,4′-Dihydroxyphenyl)-6-chlorochromane-(4→3″, 2→O-2″)-2″-hydroxy-1″,4″-naphthoquinone]
IC50 (recombinant human LDHA; [1]): 13.7 ± 0.6 µM | Selectivity Rate (IC50 hLDHB/hLDHA) (recombinant human LDHA): 8.7 | IC50 (recombinant human LDHA; [2]): 13.7 ± 0.6 µM | IC50 (recombinant human LDHB): 119 ± 2.7 µM | melting point: 300 to 302 °C (dec.)

O=c1oc2ccccc2c2c1C1CC(c3ccc(O)cc3)(Oc3ccc([N+](=O)[O-])cc31)O2 (racemic) [(±)-52, 2-(4′-Hydroxyphenyl)-6-nitrochromane-(4→3″, 2→O-4″)-4″-hydroxycoumarin]
IC50 (recombinant human LDHA; [1]): 36.9 ± 1.2 µM | Selectivity Rate (IC50 hLDHB/hLDHA) (recombinant human LDHA): 1.8 | IC50 (recombinant human LDHA; [2]): 36.9 ± 1.2 µM | melting point: 275 to 278 °C
